Reference: patent publication US20160137639A1, “TRIAZOLE-ISOXAZOLE COMPOUND AND MEDICAL USE THEREOF” (JAPAN TOBACCO INC., priority 2012, published 2016)
Where two headings read alike, the source gives them in different places.

What was measured:
mouse RORγ = target: T1, mouse RORγ (Mus musculus, UniProt P51450); experiment: Luciferase reporter gene assay of inhibitory effect against RORγ transcriptional activity (GAL4-mRORγ plasmid in CHO cells); type: cell-based
T1 construct: mouse, NM_011281.2 and from Ile251 to Lys516; expressed in transfected cells; host or cells: CHO cells (transient co-transfection with pG5-Luc reporter)
T1 sequence (P51450 251-516): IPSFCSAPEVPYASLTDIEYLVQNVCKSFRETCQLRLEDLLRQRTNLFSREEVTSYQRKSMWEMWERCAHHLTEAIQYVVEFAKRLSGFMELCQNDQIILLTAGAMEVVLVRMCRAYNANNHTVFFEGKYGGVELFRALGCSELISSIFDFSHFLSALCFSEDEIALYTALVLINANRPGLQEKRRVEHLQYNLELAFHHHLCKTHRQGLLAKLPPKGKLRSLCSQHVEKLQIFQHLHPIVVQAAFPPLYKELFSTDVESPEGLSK
Outline: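 CHO cells transiently co-transfected with GAL4-mouse RORγ LBD (Ile251–Lys516) and GAL4-dependent luciferase reporter; eight compound concentrations, 0.1% DMSO, 2 days at 37 °C. Luminescence as %-of-vehicle control; EC50 by curve fit, cytotoxic concentrations excluded.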

human RORγ = target: T2, human RORγ (Homo sapiens, UniProt P51449); experiment: Luciferase reporter gene assay of inhibitory effect against RORγ transcriptional activity (GAL4-hRORγ plasmid in CHO cells); type: cell-based
T2 construct: human, NM_005060.3 and from Ser253 to Lys518; expressed in transfected cells; host or cells: CHO cells (transient co-transfection with pG5-Luc reporter)
T2 sequence (P51449 253-518): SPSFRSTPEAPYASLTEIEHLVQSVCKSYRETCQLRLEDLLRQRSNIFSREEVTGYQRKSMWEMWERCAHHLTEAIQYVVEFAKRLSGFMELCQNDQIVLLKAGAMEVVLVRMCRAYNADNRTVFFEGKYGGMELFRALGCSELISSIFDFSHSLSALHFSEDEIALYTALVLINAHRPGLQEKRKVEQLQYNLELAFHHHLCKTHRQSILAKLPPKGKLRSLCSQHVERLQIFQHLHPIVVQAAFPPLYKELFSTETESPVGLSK

| Compound | EC50 (mouse RORγ; read-out: LUC EC50 (μM) mRORg) [µM] | EC50 (human RORγ; read-out: LUC EC50 (μM) hRORg) [µM] | EC50 (mouse RORγ; read-out: LUC EC50 mRORg) [µM] | EC50 (human RORγ; read-out: LUC EC50 hRORg) [µM] |
| --- | --- | --- | --- | --- |
| Cc1ccc(NC(=O)CC(Cc2nccs2)c2nnc([C@H]3C[C@@H](CC(C)C)C3)n2C2CC2)c(C)c1 (mixture of isomers) [Example F-439] | < 3 | < 3 | – | – |
| Cc1ccc(NC(=O)CC(CC#N)c2nnc(CCCC(C)(C)C)n2C2CC2)c(C)c1 (racemic) [Example F-440] | < 3 | < 3 | – | – |
| CNC(=O)N1C[C@H](C(=O)Nc2ccc(C)cc2C)[C@@H](c2nnc(CCCC(C)(C)C)n2C2CC2)C1 (racemic) [Example F-446] | < 3 | < 3 | – | – |
| Cc1ccc(NC(=O)[C@H]2CN(C(=O)N(C)C)C[C@@H]2c2nnc(CCCC(C)(C)C)n2C2CC2)c(C)c1 (racemic) [Example F-447] | < 3 | < 3 | – | – |
| Cc1ccc(NC(=O)[C@H]2CN(c3nc(C)cs3)C[C@@H]2c2nnc(CCCC(C)(C)C)n2C2CC2)c(C)c1 (racemic) [Example F-448] | < 3 | < 3 | – | – |
| Cc1ccc(NC(=O)[C@H]2CNC[C@@H]2c2nnc(CCCC(C)(C)C)n2C2CC2)c(C)c1 (racemic) [Example F-449] | > 3 | > 3 | – | – |
| Cc1ccc(NC(=O)CC(Cc2cc(O)no2)c2nnc([C@H]3C[C@@H](CC(C)C)C3)n2C2CC2)c(C)c1 (mixture of isomers) [Example F-450] | < 3 | < 3 | – | – |
| CC(=O)N1C[C@H](C(=O)Nc2ccc(C)cc2C)[C@@H](c2nnc(C3CC4(CCCCC4)C3)n2C2CC2)C1 (racemic) [Example F-452] | < 3 | < 3 | – | – |
| Cc1ccc(NC(=O)CC(c2nnc(CCCC(C)(C)C)n2C2CC2)C(C)C)c(C)c1 (racemic) [Example F-453] | < 3 | < 3 | – | – |
| Cc1ccc(NC(=O)CC(Cc2ncco2)c2nnc([C@H]3C[C@@H](CC(C)C)C3)n2C2CC2)c(C)c1 (mixture of isomers) [Example F-454] | < 3 | < 3 | – | – |
| Cc1ccc(NC(=O)CC(CCOCc2ccccc2)c2nnc(-c3cc(CC(C)C)on3)n2C2CC2)c(C)c1 (racemic) [Example F-455] | < 3 | > 3 | – | – |
| Cc1ccc(NC(=O)CC(c2nnc([C@H]3C[C@@H](CC(C)C)C3)n2C2CC2)C2CN(C(=O)OCc3ccccc3)C2)c(C)c1 (mixture of isomers) [Example F-459] | < 3 | < 3 | – | – |
| Cc1ccc(NC(=O)CC(c2nnc([C@H]3C[C@@H](CC(C)C)C3)n2C2CC2)C2CNC2)c(C)c1 (mixture of isomers) [Example F-468] | > 3 | > 3 | – | – |
| Cc1ccc(NC(=O)CC(c2nnc([C@H]3C[C@@H](CC(C)C)C3)n2C2CC2)C2CN(C)C2)c(C)c1 (mixture of isomers) [Example F-469] | > 3 | > 3 | – | – |
| Cc1ccc(NC(=O)CC(Cc2nc(=O)o[nH]2)c2nnc([C@H]3C[C@@H](CC(C)C)C3)n2C2CC2)c(C)c1 (mixture of isomers) [Example F-472] | < 3 | < 3 | – | – |
| Cc1ccc(NC(=O)CC(Cc2nnn[nH]2)c2nnc([C@H]3C[C@@H](CC(C)C)C3)n2C2CC2)c(C)c1 (mixture of isomers) [Example F-481] | > 3 | > 3 | – | – |
| Cc1ccc(NC(=O)CC(CCOC(=O)N(C)C)c2nnc([C@H]3C[C@@H](CC(C)C)C3)n2C2CC2)c(C)c1 (mixture of isomers) [Example F-484] | < 3 | < 3 | – | – |
| Cc1ccc(NC(=O)CC(Cc2nc(=O)on2C)c2nnc([C@H]3C[C@@H](CC(C)C)C3)n2C2CC2)c(C)c1 (mixture of isomers) [Example F-485] | < 3 | < 3 | – | – |
| Cc1ccc(NC(=O)C(C)C(CCOCc2ccccc2)c2nnc([C@H]3C[C@@H](CC(C)C)C3)n2C2CC2)c(C)c1 (mixture of isomers) [Example F-488] | < 3 | > 3 | – | – |
| Cc1ccc(NC(=O)CC(CO)c2nnc(CCCC(C)(C)C)n2C2CC2)c(C)c1 (racemic) [Example F-497] | – | – | < 3 | < 3 |

| Compound | EC50 (mouse RORγ; read-out: LUC EC50 (μM) mRORg) [µM] | EC50 (human RORγ; read-out: LUC EC50 (μM) hRORg) [µM] | EC50 (mouse RORγ; read-out: LUC EC50 mRORg) [µM] | EC50 (human RORγ; read-out: LUC EC50 hRORg) [µM] |
| --- | --- | --- | --- | --- |
| Cc1ccc(NC(=O)CC(CC(=O)OC(C)(C)C)c2nnc([C@H]3C[C@@H](CC(C)C)C3)n2C2CC2)c(C)c1 (mixture of isomers) [Example F-498] | – | – | < 3 | < 3 |
| Cc1ccc(NC(=O)CC(CC(=O)O)c2nnc([C@H]3C[C@@H](CC(C)C)C3)n2C2CC2)c(C)c1 (mixture of isomers) [Example F-499] | – | – | < 3 | > 3 |
| Cc1ccc(NC(=O)CC(CC(=O)N(C)C)c2nnc([C@H]3C[C@@H](CC(C)C)C3)n2C2CC2)c(C)c1 (mixture of isomers) [Example F-500] | – | – | < 3 | < 3 |
| Cc1ccc(NC(=O)CC(CC(=O)N2CCCC2)c2nnc([C@H]3C[C@@H](CC(C)C)C3)n2C2CC2)c(C)c1 (mixture of isomers) [Example F-501] | – | – | < 3 | < 3 |
| COc1cccc(CC(CC(=O)Nc2ccc(C)cc2C)c2nnc([C@H]3C[C@@H](CC(C)C)C3)n2C2CC2)n1 (mixture of isomers) [Example F-504] | – | – | < 3 | < 3 |
| Cc1ccc(NC(=O)CC(Cc2cccc(=O)[nH]2)c2nnc([C@H]3C[C@@H](CC(C)C)C3)n2C2CC2)c(C)c1 (mixture of isomers) [Example F-505] | – | – | > 3 | < 3 |
| Cc1ccc(NC(=O)CC(CN2C(=O)N(C)C(C)(C)C2=O)c2nnc(CCCC(C)(C)C)n2C2CC2)c(C)c1 (racemic) [Example F-508] | – | – | > 3 | > 3 |
| C=CCC(CC(=O)Nc1ccc(C)cc1C)c1nnc([C@H]2C[C@@H](CC(C)C)C2)n1C1CC1 (mixture of isomers) [Example F-509] | – | – | < 3 | < 3 |
| C=C1C[C@H](C(=O)Nc2ccc(C)cc2C)[C@@H](c2nnc([C@H]3C[C@@H](CC(C)C)C3)n2C2CC2)C1 (racemic) [Example F-517] | – | – | < 3 | < 3 |
| Cc1ccc(NC(=O)[C@H]2CN(S(=O)(=O)C(F)(F)F)C[C@@H]2c2nnc(CCCC(C)(C)C)n2C2CC2)c(C)c1 (racemic) [Example F-527] | – | – | < 3 | < 3 |
| Cc1ccc(NC(=O)CC(c2nnc([C@H]3C[C@@H](CC(C)C)C3)n2C2CC2)C(C)O)c(C)c1 (mixture of isomers) [Example F-529] | – | – | < 3 | < 3 |
| Cc1ccc(NC(=O)[C@H]2CC(=O)C[C@@H]2c2nnc([C@H]3C[C@@H](CC(C)C)C3)n2C2CC2)c(C)c1 (racemic) [Example F-533] | – | – | < 3 | < 3 |
| Cc1ccc(NC(=O)[C@H]2CC(O)(C(F)(F)F)C[C@@H]2c2nnc([C@H]3C[C@@H](CC(C)C)C3)n2C2CC2)c(C)c1 (mixture of isomers) [Example F-545] | – | – | < 3 | < 3 |
| Cc1ccc(NC(=O)[C@H]2CC(F)(F)C[C@@H]2c2nnc(-c3cc(CC(C)C)on3)n2C2CC2)c(C)c1 (racemic) [Example F-570] | – | – | > 3 | < 3 |
| Cc1ccc(NC(=O)[C@H]2CN(C)CC[C@@H]2c2nnc([C@H]3C[C@@H](CC(C)C)C3)n2C2CC2)c(C)c1 (racemic) [Example F-583] | – | – | < 3 | < 3 |
| Cc1ccc(NC(=O)CC(c2nnc([C@H]3C[C@@H](CC(C)C)C3)n2C2CC2)C(F)(F)CO)c(C)c1 (mixture of isomers) [Example F-617] | – | – | < 3 | < 3 |
| Cc1ccc(NC(=O)C[C@H](CCC(=O)O)c2nnc([C@H]3C[C@@H](CC(C)(C)C(C)C)C3)n2C2CC2(F)F)c(Cl)c1 (mixture of isomers) [Example F-714] | – | – | < 3 | < 3 |
| Cc1ccc(NC(=O)CCc2noc(C(O)c3cc(C(C)(C)C)no3)c2C2CC2)c(Cl)c1 (racemic) [Example F-744] | – | – | < 3 | > 3 |
| CC(=O)N1C[C@H](C(=O)Nc2ccc(C)cc2C)[C@@H](c2nnc(CCC3CC3(C)C)n2C2CC2)C1 (single isomer, unassigned) [Example F-328] | < 3 | < 3 | – | – |
